Active and inactive are the calls of the source. No cut-off for these calls is given here.
Tested on: Ribosome
Assay: Inhibition of ribosome peptidyl transferase site in rabbit reticulocytes assessed as inhibition of translation using firefly luciferase DNA as template at 0.8 to 80 uM after 1 hr by luciferase assay
Format: subcellular
Details: Oryctolagus cuniculus

inhibition: Active
SMILES: CCN(CC)c1ccc2c(COC(=O)N3C[C@@H](O)[C@H](OC(C)=O)[C@@H]3Cc3ccc(OC)cc3)cc(=O)oc2c1
